Laboratory results published in US20100280010A1, “CHEMICAL COMPOUNDS” (priority 2006, published 2010).

System: HIV-1 (Ba-L or IIIB) infection of HOS cell line (expressing hCXCR4/hCCR5/hCD4/pHIV-LTR-luciferase)
Experiment: HOS HIV-1 Infectivity Assay
Assay type: cell-based
Conditions: Human immunodeficiency virus 1, HOS, virus strain not given, read-out: Activity Level
Description: Compounds were profiled against two HIV-1 viruses, the M-tropic (CCR5 utilizing) Ba-L strain and the T-tropic (CXCR4 utilizing) IIIB strain. Ba-L was propagated in either peripheral blood lymphocytes or SupT1/CCR5+/CXCR4+ cells. IIIB was propagated in peripheral blood lymphocytes. Compounds were tested for their ability to block infection of the HOS cell line (expressing hCXCR4/hCCR5/hCD4/pHIV-LTR-luciferase) by either HIV-1 Ba-L or HIV-1 IIIB. Compound cytotoxicity was also examined in the absence of virus addition.
HOS cells (expressing hCXCR4/hCCR5/hCD4/pHIV-LTR-luciferase) were harvested and diluted in Dulbeccos modified Eagles media supplemented with 2% FCS to a concentration of 120,000 cells/ml. The cells were plated into 96-well plates (50 μl per well) and the plates were placed in a tissue culture incubator ([…]; 5% CO2195% air) for a period of 24 h.
Subsequently, 50 μl of the desired drug solution (2 times the final concentration) was added to each well and the plates were returned to the tissue culture incubator (370° C.; 5% CO2/95% air) for 1 h. Following this incubation, 60 μl of diluted virus (4 times the final concentration) was added to 60 μl of 2× the final desired concentration of the compound and 100 μl of this compound/virus mix was added to each well (approximately 2 million RLU per well of virus). The plates were returned to the tissue culture incubator (370° C.; 5% CO2/95% air) and were incubated for a further 96 h.
Following this incubation the endpoint for the virally infected cultures was quantified following addition of Steady-Glo Luciferase assay system reagent (Promega, Madison, Wis.). Cell viability or non-infected cultures was measured using a CellTiter-Glo luminescent cell viability assay system (Promega, Madison, Wis.). All luminescent readouts are performed on a Topcount luminescence detector (Packard, Meridien, Conn.).

Row | Compound | IC50 [µM]
1 | CC(=O)c1c(CN(C)[C@H]2CCCc3cccnc32)nc2cccc(N3CCN(C)CC3)n12 [Example 14, 1-[5-(4-Methyl-1-piperazinyl)-2-({methyl[(8S)-5,6,7,8-tetrahydro-8-quinolinyl]amino}methyl)imidazo[1,2-a]pyridin-3-yl]ethanone] | < 0.1
2 | CN1CCN(c2cccc3nc(CN(C)[C@H]4CCCc5cccnc54)c(Br)n23)CC1 [Example 16, (8S)—N-{[3-Bromo-5-(4-methyl-1-piperazinyl)imidazo[1,2-a]pyridin-2-yl]methyl}-N-methyl-5,6,7,8-tetrahydro-8-quinolinamine] | < 0.1
3 | CN1CCN(c2cccc3nc(CN(C)[C@H]4CCCc5cccnc54)c(C#N)n23)CC1 [Example 17, 5-(4-Methyl-1-piperazinyl)-2-({methyl[(8S)-5,6,7,8-tetrahydro-8-quinolinyl]amino}methyl)imidazo[1,2-a]pyridine-3-carbonitrile] | < 0.1
4 | CN1CCN(c2cccc3nc(CN(C)[C@H]4CCCc5cccnc54)c(C(N)=O)n23)CC1 [Example 18, 5-(4-Methyl-1-piperazinyl)-2-({methyl[(8S)-5,6,7,8-tetrahydro-8-quinolinyl]amino}methyl)imidazo[1,2-a]pyridine-3-carboxamide] | < 0.1
5 | CCN(Cc1nc2cccc(N3CCN(C)CC3)n2c1C#N)[C@H]1CCCc2cccnc21 [Example 21, 2-({Ethyl[(8S)-5,6,7,8-tetrahydro-8-quinolinyl]amino}methyl)-5-(4-methyl-1-piperazinyl)imidazo[1,2-a]pyridine-3-carbonitrile] | < 0.1
6 | CCN(Cc1nc2cccc(N3CCN(C)CC3)n2c1C(N)=O)[C@H]1CCCc2cccnc21 [Example 22, 2-({Ethyl[(8S)-5,6,7,8-tetrahydro-8-quinolinyl]amino}methyl)-5-(4-methyl-1-piperazinyl)imidazo[1,2-a]pyridine-3-carboxamide] | < 0.1
7 | CCCN(Cc1nc2cccc(N3CCN(C)CC3)n2c1C#N)[C@H]1CCCc2cccnc21 [Example 25, 5-(4-Methyl-1-piperazinyl)-2-({propyl[(8S)-5,6,7,8-tetrahydro-8-quinolinyl]amino}methyl)imidazo[1,2-a]pyridine-3-carbonitrile] | < 0.1
8 | CCCN(Cc1nc2cccc(N3CCN(C)CC3)n2c1C(N)=O)[C@H]1CCCc2cccnc21 [Example 26, 5-(4-Methyl-1-piperazinyl)-2-({propyl[(8S)-5,6,7,8-tetrahydro-8-quinolinyl]amino}methyl)imidazo[1,2-a]pyridine-3-carboxamide] | < 0.1
9 | CC(C)N(Cc1nc2cccc(N3CCN(C)CC3)n2c1C#N)[C@H]1CCCc2cccnc21 [Example 29, 2-({(1-Methylethyl)[(8S)-5,6,7,8-tetrahydro-8-quinolinyl]amino}methyl)-5-(4-methyl-1-piperazinyl)imidazo[1,2-a]pyridine-3-carbonitrile] | < 0.1
10 | CC(C)N(Cc1nc2cccc(N3CCN(C)CC3)n2c1C(N)=O)[C@H]1CCCc2cccnc21 [Example 30, 2-([(1-Methylethyl)[(8S)-5,6,7,8-tetrahydro-8-quinolinyl]amino]methyl)-5-(4-methyl-1-piperazinyl)imidazo[1,2-a]pyridine-3-carboxamide] | < 0.1
11 | CN1CCN(c2cccc3nc(CN(CC4CC4)[C@H]4CCCc5cccnc54)c(C#N)n23)CC1 [Example 33, 2-({(Cyclopropylmethyl)[(8S)-5,6,7,8-tetrahydro-8-quinolinyl]amino}methyl)-5-(4-methyl-1-piperazinyl)imidazo[1,2-a]pyridine-3-carbonitrile] | < 0.1
12 | CN(C)[C@@H]1CCN(c2cccc3nc(CN(C)[C@H]4CCCc5cccnc54)c(C#N)n23)C1 [Example 38, 5-[(3R)-3-(Dimethylamino)-1-pyrrolidinyl]-2-({methyl[(8S)-5,6,7,8-tetrahydro-8-quinolinyl]amino}methyl)imidazo[1,2-a]pyridine-3-carbonitrile] | < 0.1
13 | CN(C)[C@@H]1CCN(c2cccc3nc(CN(C)[C@H]4CCCc5cccnc54)c(C(N)=O)n23)C1 [Example 39, 5-[(3R)-3-(Dimethylamino)-1-pyrrolidinyl]-2-({methyl[(8S)-5,6,7,8-tetrahydro-8-quinolinyl]amino}methyl)imidazo[1,2-a]pyridine-3-carboxamide] | < 0.1
14 | CCN(Cc1nc2cccc(N3CC[C@@H](N(C)C)C3)n2c1C#N)[C@H]1CCCc2cccnc21 [Example 42, 5-[(3R)-3-(Dimethylamino)-1-pyrrolidinyl]-2-({ethyl[(8S)-5,6,7,8-tetrahydro-8-quinolinyl]amino}methyl)imidazo[1,2-a]pyridine-3-carbonitrile] | < 0.1
15 | CCN(Cc1nc2cccc(N3CC[C@@H](N(C)C)C3)n2c1C(N)=O)[C@H]1CCCc2cccnc21 [Example 43, 5-[(3R)-3-(Dimethylamino)-1-pyrrolidinyl]-2-({ethyl[(8S)-5,6,7,8-tetrahydro-8-quinolinyl]amino}methyl)imidazo[1,2-d]pyridine-3-carboxamide] | < 0.1
16 | CCCN(Cc1nc2cccc(N3CC[C@@H](N(C)C)C3)n2c1C#N)[C@H]1CCCc2cccnc21 [Example 46, 5-[(3R)-3-(Dimethylamino)-1-pyrrolidinyl]-2-({propyl[(8S)-5,6,7,8-tetrahydro-8-quinolinyl]amino}methyl)imidazo[1,2-a]pyridine-3-carbonitrile] | < 0.1
17 | CCCN(Cc1nc2cccc(N3CC[C@@H](N(C)C)C3)n2c1C(N)=O)[C@H]1CCCc2cccnc21 [Example 47, 5-[(3R)-3-(Dimethylamino)-1-pyrrolidinyl]-2-({propyl[(8S)-5,6,7,8-tetrahydro-8-quinolinyl]amino}methyl)imidazo[1,2-a]pyridine-3-carboxamide] | < 0.1
18 | CC(C)N(Cc1nc2cccc(N3CC[C@@H](N(C)C)C3)n2c1C#N)[C@H]1CCCc2cccnc21 [Example 50, 5-[(3R)-3-(Dimethylamino)-1-pyrrolidinyl]-2-({(1-methylethyl)[(8S)-5,6,7,8-tetrahydro-8-quinolinyl]amino}methyl)imidazo[1,2-a]pyridine-3-carbonitrile] | < 0.1
19 | CC(C)N(Cc1nc2cccc(N3CC[C@@H](N(C)C)C3)n2c1C(N)=O)[C@H]1CCCc2cccnc21 [Example 51, 5-[(3R)-3-(Dimethylamino)-1-pyrrolidinyl]-2-({(1-methylethyl)[(8S)-5,6,7,8-tetrahydro-8-quinolinyl]amino}methyl)imidazo[1,2-a]pyridine-3-carboxamide] | < 0.1
20 | CN(C)[C@@H]1CCN(c2cccc3nc(CN(Cc4ccccc4)[C@H]4CCCc5cccnc54)c(C#N)n23)C1 [Example 53, 5-[(3R)-3-(Dimethylamino)-1-pyrrolidinyl]-2-({(phenylmethyl)[(8S)-5,6,7,8-tetrahydro-8-quinolinyl]amino}methyl)imidazo[1,2-a]pyridine-3-carbonitrile] | < 0.1
21 | CN(C)C1CCN(c2cccc3nc(CN(C)[C@H]4CCCc5cccnc54)c(C#N)n23)CC1 [Example 58, 5-[4-(dimethylamino)-1-piperidinyl]-2-({methyl[(8S)-5,6,7,8-tetrahydro-8-quinolinyl]amino}methyl)imidazo[1,2-a]pyridine-3-carbonitrile] | < 0.1
22 | CN(C)C1CCN(c2cccc3nc(CN(C)[C@H]4CCCc5cccnc54)c(C(N)=O)n23)CC1 [Example 59] | < 0.1
23 | CCN(Cc1nc2cccc(N3CCC(N(C)C)CC3)n2c1C#N)[C@H]1CCCc2cccnc21 [Example 62, 5-[4-(dimethylamino)-1-piperidinyl]-2-({ethyl[(8S)-5,6,7,8-tetrahydro-8-quinolinyl]amino}methyl)imidazo[1,2-a]pyridine-3-carbonitrile] | < 0.1
24 | CCN(Cc1nc2cccc(N3CCC(N(C)C)CC3)n2c1C(N)=O)[C@H]1CCCc2cccnc21 [Example 63, 5-[4-(dimethylamino)-1-piperidinyl]-2-({ethyl[(8S)-5,6,7,8-tetrahydro-8-quinolinyl]amino}methyl)imidazo[1,2-a]pyridine-3-carboxamide] | < 0.1
25 | CCCN(Cc1cn2c(N3CCC(N(C)C)CC3)cccc2n1)[C@H]1CCCc2cccnc21 [Example 64, (8S)—N-({5-[4-(dimethylamino)-1-piperidinyl]imidazo[1,2-a]pyridin-2-yl}methyl)-N-propyl-5,6,7,8-tetrahydro-8-quinolinamine] | < 0.1
26 | CCCN(Cc1nc2cccc(N3CCC(N(C)C)CC3)n2c1C#N)[C@H]1CCCc2cccnc21 [Example 66, 5-[4-(dimethylamino)-1-piperidinyl]-2-({propyl[(8S)-5,6,7,8-tetrahydro-8-quinolinyl]amino}methyl)imidazo[1,2-a]pyridine-3-carbonitrile] | < 0.1
27 | CCCN(Cc1nc2cccc(N3CCC(N(C)C)CC3)n2c1C(N)=O)[C@H]1CCCc2cccnc21 [Example 67, 5-[4-(dimethylamino)-1-piperidinyl]-2-({propyl[(8S)-5,6,7,8-tetrahydro-8-quinolinyl]amino}methyl)imidazo[1,2-a]pyridine-3-carboxamide] | < 0.1
